Data on twelve compounds can be found in patent US20250064941A1, “SIGLEC LIGANDS, CONJUGATES, AND METHODS OF USE THEREOF” (Osprey Biopharmaceuticals, Inc., priority 2023, published 2025).

The target of experiment [1] is cynomolgus Siglec-2/CD22 (Macaca fascicularis, UniProt A0A2K5WCZ6). Nature of the experiment: biochemical. In kind it is binding. To be noted: SPR, steady-state analysis; read-out: Affinity cyno CD22. An outline of the steps:
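Compound binding measured by steady-state SPR analysis, 120 s dissociation, in HEPES-NaCl-Tween buffer pH 7.5 containing 1% DMSO, DMSO solvent-corrected. Surface: cyno CD22, sialic acids first stripped by SialoExo for 4 h at 37° C., then amine-coupled onto CM5.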

Experiment [2] addresses T1, mouse Siglec-2-Fc-Avi (CD22) (Mus musculus, UniProt P35329).
T1 construct: made in house
T1 sequence (P35329 22-708 limits assumed): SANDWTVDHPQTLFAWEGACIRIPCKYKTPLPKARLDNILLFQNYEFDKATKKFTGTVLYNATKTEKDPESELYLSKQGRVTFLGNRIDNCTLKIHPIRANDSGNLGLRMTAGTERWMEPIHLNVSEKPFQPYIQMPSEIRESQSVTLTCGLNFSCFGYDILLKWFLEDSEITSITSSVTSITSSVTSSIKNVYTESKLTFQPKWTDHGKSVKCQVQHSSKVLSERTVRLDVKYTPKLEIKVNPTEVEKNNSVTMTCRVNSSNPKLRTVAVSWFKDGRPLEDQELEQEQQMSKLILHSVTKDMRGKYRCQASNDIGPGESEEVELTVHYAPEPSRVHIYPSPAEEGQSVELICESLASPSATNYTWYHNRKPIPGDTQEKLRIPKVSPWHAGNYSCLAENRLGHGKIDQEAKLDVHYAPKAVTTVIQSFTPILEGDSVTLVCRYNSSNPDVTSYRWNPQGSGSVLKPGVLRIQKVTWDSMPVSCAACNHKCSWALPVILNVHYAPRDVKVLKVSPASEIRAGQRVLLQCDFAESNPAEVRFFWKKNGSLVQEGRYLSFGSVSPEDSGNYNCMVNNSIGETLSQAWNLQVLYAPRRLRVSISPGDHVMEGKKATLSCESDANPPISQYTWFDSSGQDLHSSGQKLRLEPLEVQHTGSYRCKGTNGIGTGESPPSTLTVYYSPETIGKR
Nature of the experiment: SPR binding affinity to mouse CD22. Conditions: steady-state analysis. An outline of the steps: (§1)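 Biotinylated CD22 desialylated with SialoExo (4 h, 37° C) before capture on streptavidin chip. Running buffer 10 mM HEPES, 150 mM NaCl, 0.05% Tween-20, pH 7.5, 1% DMSO, with DMSO solvent correction; 120 s dissociation. Compound affinities from steady-state analysis.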
(SPR reads the build-up and loss of mass on a sensor chip optically.)

Experiment [3] concerns the target T2, human Siglec-2/CD22 protein (Homo sapiens, UniProt P20273).
T2 construct: purchased Acro Biosystems SI2-H82E3
T2 sequence (P20273 20-847): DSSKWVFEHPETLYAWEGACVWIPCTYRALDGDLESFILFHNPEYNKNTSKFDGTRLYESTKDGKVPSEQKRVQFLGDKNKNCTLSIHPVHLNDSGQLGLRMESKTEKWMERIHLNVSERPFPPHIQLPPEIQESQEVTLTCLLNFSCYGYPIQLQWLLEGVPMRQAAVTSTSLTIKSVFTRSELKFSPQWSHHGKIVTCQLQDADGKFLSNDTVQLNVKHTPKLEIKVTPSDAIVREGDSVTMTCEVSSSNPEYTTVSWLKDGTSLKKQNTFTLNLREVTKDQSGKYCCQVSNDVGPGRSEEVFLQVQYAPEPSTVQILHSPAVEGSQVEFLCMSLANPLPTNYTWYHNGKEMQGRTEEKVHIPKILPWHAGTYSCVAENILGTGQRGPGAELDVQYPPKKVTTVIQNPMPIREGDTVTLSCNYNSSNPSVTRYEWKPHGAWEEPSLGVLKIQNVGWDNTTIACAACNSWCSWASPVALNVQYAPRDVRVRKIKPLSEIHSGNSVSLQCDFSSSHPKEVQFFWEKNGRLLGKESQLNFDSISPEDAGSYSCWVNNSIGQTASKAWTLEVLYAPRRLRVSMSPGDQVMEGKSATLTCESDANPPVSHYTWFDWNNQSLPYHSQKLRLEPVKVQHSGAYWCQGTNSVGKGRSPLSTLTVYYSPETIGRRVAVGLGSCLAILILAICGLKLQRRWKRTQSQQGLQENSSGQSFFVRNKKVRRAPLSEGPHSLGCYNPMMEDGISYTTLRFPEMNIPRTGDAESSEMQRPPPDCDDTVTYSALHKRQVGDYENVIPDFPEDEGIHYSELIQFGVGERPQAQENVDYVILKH
Nature of the experiment: SPR binding affinity to human CD22. To be noted: steady-state analysis. An outline of the steps: as §1

cynomolgus Siglec-2/CD22, sequence (A0A2K5WCZ6 entry or part of it): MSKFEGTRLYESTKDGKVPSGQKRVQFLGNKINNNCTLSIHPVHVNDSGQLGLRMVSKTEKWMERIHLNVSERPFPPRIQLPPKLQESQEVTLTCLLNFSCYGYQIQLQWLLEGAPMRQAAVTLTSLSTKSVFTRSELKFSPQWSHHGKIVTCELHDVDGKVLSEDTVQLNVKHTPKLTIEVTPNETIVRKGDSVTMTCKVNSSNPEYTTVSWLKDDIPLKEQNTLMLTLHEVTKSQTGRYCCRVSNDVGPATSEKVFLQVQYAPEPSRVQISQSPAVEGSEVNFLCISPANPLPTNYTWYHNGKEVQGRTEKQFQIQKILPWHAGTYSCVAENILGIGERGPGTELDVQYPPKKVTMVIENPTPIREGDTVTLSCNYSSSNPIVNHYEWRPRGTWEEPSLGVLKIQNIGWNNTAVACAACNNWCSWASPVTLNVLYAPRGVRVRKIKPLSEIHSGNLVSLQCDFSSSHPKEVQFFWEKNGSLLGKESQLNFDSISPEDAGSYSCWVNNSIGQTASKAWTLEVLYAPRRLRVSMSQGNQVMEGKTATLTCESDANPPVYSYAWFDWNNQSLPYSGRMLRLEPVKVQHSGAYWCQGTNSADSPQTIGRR

Take `C#CCOCCOCCO[C@]1(C(=O)O)C[C@H](O)[C@@H](NC(=O)CO)[C@H]([C@H](O)[C@H](O)CNC(=O)Cc2ccc(-c3cccc(O)c3)cc2)O1` [Compound 78, (2R,4S,5R,6R)-6-((1R,2R)-1,2-dihydroxy-3-(2-(3′-hydroxy-[1,1′-biphenyl]-4-yl)acetamido)propyl)-4-hydroxy-5-(2-hydroxyacetamido)-2-(2-(2-(prop-2-yn-1-yloxy)ethoxy)ethoxy)tetrahydro-2H-pyran-2-carboxylic acid]: the values for the Kd in experiment [1], in experiment [2] and in experiment [3] were 1000 to 10000 nM, 1000 to 10000 nM and under 1000 nM, respectively.

On to `C#CCOCCOCCO[C@]1(C(=O)O)C[C@H](O)[C@@H](NC(=O)CO)[C@H]([C@H](O)[C@H](O)CNC(=O)Cc2ccc(-c3ccccc3)nc2)O1` [Compound 79, (2R,4S,5R,6R)-6-((1R,2R)-1,2-dihydroxy-3-(2-(6-phenylpyridin-3-yl)acetamido)propyl)-4-hydroxy-5-(2-hydroxyacetamido)-2-(2-(2-(prop-2-yn-1-yloxy)ethoxy)ethoxy)tetrahydro-2H-pyran-2-carboxylic acid], for which the Kd in experiment [1] was over 10000 nM; in experiment [2], over 10000 nM; in experiment [3], 1000 to 10000 nM.

`C#CCOCCOCCO[C@]1(C(=O)O)C[C@H](O)[C@@H](NC(=O)CO)[C@H]([C@H](O)[C@H](O)CNC(=O)Cc2ccc(-c3cccc(C(=O)NC)c3)cc2)O1` [Compound 80, (2R,4S,5R,6R)-6-((1R,2R)-1,2-dihydroxy-3-(2-(3′-(methylcarbamoyl)-[1,1′-biphenyl]-4-yl)acetamido)propyl)-4-hydroxy-5-(2-hydroxyacetamido)-2-(2-(2-(prop-2-yn-1-yloxy)ethoxy)ethoxy)tetrahydro-2H-pyran-2-carboxylic acid]: the Kd in experiment [1], in experiment [2] and in experiment [3] was 1000 to 10000 nM in each case.

On to `C#CCOCCOCCO[C@]1(C(=O)O)C[C@H](O)[C@@H](NC(=O)CO)[C@H]([C@H](O)[C@H](O)CNC(=O)Cc2ccc(-c3cccc(C#N)c3)cc2)O1` [Compound 81, (2R,4S,5R,6R)-6-((1R,2R)-3-(2-(3′-cyano-[1,1′-biphenyl]-4-yl)acetamido)-1,2-dihydroxypropyl)-4-hydroxy-5-(2-hydroxyacetamido)-2-(2-(2-(prop-2-yn-1-yloxy)ethoxy)ethoxy)tetrahydro-2H-pyran-2-carboxylic acid], for which the figures for the Kd in experiment [1], in experiment [2] and in experiment [3] were 1000 to 10000 nM, over 10000 nM and 1000 to 10000 nM, respectively.

Turning to `C#CCOCCOCCO[C@]1(C(=O)O)C[C@H](O)[C@@H](NC(=O)CO)[C@H]([C@H](O)[C@H](O)CNC(=O)Cc2ccc(-c3cccnc3)cc2)O1` [Compound 82, (2R,4S,5R,6R)-6-((1R,2R)-1,2-dihydroxy-3-(2-(4-(pyridin-3-yl)phenyl)acetamido)propyl)-4-hydroxy-5-(2-hydroxyacetamido)-2-(2-(2-(prop-2-yn-1-yloxy)ethoxy)ethoxy)tetrahydro-2H-pyran-2-carboxylic acid], the Kd in experiment [1] was over 10000 nM; in experiment [2], over 10000 nM; in experiment [3], 1000 to 10000 nM.

Regarding `C#CCCOCCOCCO[C@]1(C(=O)O)C[C@H](O)[C@@H](NC(=O)CO)[C@H]([C@H](O)[C@H](O)CNC(=O)Cc2ccc(-c3ccc(O)cc3)cc2)O1` [Compound 83, (2R,4S,5R,6R)-2-(2-(2-(but-3-yn-1-yloxy)ethoxy)ethoxy)-6-((1R,2R)-1,2-dihydroxy-3-(2-(4′-hydroxy-[1,1′-biphenyl]-4-yl)acetamido)propyl)-4-hydroxy-5-(2-hydroxyacetamido)tetrahydro-2H-pyran-2-carboxylic acid], the Kd in experiment [1] is 1000 to 10000 nM; in experiment [2] it was 1000 to 10000 nM; in experiment [3], under 1000 nM.

`C#CCOCCCCCCO[C@]1(C(=O)O)C[C@H](O)[C@@H](NC(=S)NC)[C@H]([C@H](O)[C@H](O)CNC(=O)Cc2ccc(Cl)cc2)O1` [Compound 84, (2R,4S,5R,6R)-6-((1R,2R)-3-(2-(4-chlorophenyl)acetamido)-1,2-dihydroxypropyl)-4-hydroxy-5-(3-methylthioureido)-2-((6-(prop-2-yn-1-yloxy)hexyl)oxy)tetrahydro-2H-pyran-2-carboxylic acid]: the Kd is 1000 to 10000 nM in experiment [1], 1000 to 10000 nM in experiment [2] and under 1000 nM in experiment [3].

On to `C#CCOCCCCCCO[C@]1(C(=O)O)C[C@H](O)[C@@H](NC(=O)N(C)C)[C@H]([C@H](O)[C@H](O)CNC(=O)Cc2ccc(Cl)cc2)O1` [Compound 85, (2R,4S,5R,6R)-6-((1R,2R)-3-(2-(4-chlorophenyl)acetamido)-1,2-dihydroxypropyl)-5-(3,3-dimethylureido)-4-hydroxy-2-((6-(prop-2-yn-1-yloxy)hexyl)oxy)tetrahydro-2H-pyran-2-carboxylic acid], for which the Kd in experiment [1] was under 1000 nM; in experiment [2], 1000 to 10000 nM; in experiment [3] it was under 1000 nM.

For the compound `C#CCOCCCCCCO[C@]1(C(=O)O)C[C@H](O)[C@@H](NC(=O)CC2CC2)[C@H]([C@H](O)[C@H](O)CNC(=O)Cc2ccc(Cl)cc2)O1` [Compound 88, (2R,4S,5R,6R)-6-((1R,2R)-3-(2-(4-chlorophenyl)acetamido)-1,2-dihydroxypropyl)-5-(2-cyclopropylacetamido)-4-hydroxy-2-((6-(prop-2-yn-1-yloxy)hexyl)oxy)tetrahydro-2H-pyran-2-carboxylic acid], the Kd is 1000 to 10000 nM in experiment [1], over 10000 nM in experiment [2] and 1000 to 10000 nM in experiment [3].

As for `C#CCOCCCCCCO[C@]1(C(=O)O)C[C@H](O)[C@@H](NC(=O)NC2CC2)[C@H]([C@H](O)[C@H](O)CNC(=O)Cc2ccc(Cl)cc2)O1` [Compound 89, (2R,4S,5R,6R)-6-((1R,2R)-3-(2-(4-chlorophenyl)acetamido)-1,2-dihydroxypropyl)-5-(3-cyclopropylureido)-4-hydroxy-2-((6-(prop-2-yn-1-yloxy)hexyl)oxy)tetrahydro-2H-pyran-2-carboxylic acid], the Kd in experiment [1], in experiment [2] and in experiment [3] was 1000 to 10000 nM throughout.

Take `C#CCOCCCCCCO[C@]1(C(=O)O)C[C@H](O)[C@@H](NC(=O)C(F)(F)F)[C@H]([C@H](O)[C@H](O)CNC(=O)Cc2ccc(Cl)cc2)O1` [Compound 90, (2R,4S,5R,6R)-6-((1R,2R)-3-(2-(4-chlorophenyl)acetamido)-1,2-dihydroxypropyl)-4-hydroxy-2-((6-(prop-2-yn-1-yloxy)hexyl)oxy)-5-(2,2,2-trifluoroacetamido)tetrahydro-2H-pyran-2-carboxylic acid]: the figures for the Kd in experiment [1], in experiment [2] and in experiment [3] were under 1000 nM, 1000 to 10000 nM and under 1000 nM, respectively.

As for `C#CCOCCCCCCO[C@]1(C(=O)O)C[C@H](O)[C@@H](NC(=O)COc2ccccc2)[C@H]([C@H](O)[C@H](O)CNC(=O)Cc2ccc(Cl)cc2)O1` [Compound 91, (2R,4S,5R,6R)-6-((1R,2R)-3-(2-(4-chlorophenyl)acetamido)-1,2-dihydroxypropyl)-4-hydroxy-5-(2-phenoxyacetamido)-2-((6-(prop-2-yn-1-yloxy)hexyl)oxy)tetrahydro-2H-pyran-2-carboxylic acid], the figures for the Kd in experiment [1], in experiment [2] and in experiment [3] were under 1000 nM, over 10000 nM and 1000 to 10000 nM, respectively.
